Data as given in a melting point compilation (Tetko et al.; mined from patent text by program, amines drawn as free bases though some values may be those of a salt).

| SMILES | melting point [°C] |
| --- | --- |
| O=C(Cc1ccc(-c2ccccc2)cc1)NCCc1ccc(OCc2ccccc2)c(OCc2ccccc2)c1 | 142 to 144 |
| CCN(CC)C(=O)c1ccc2ccccc2c1/C=C/c1ccccc1 | 86 to 89 |
| CCC(C)(OCc1nn(Cc2ccccc2)c2ccccc12)C(=O)O (centres undefined) | 66 to 67 |
| O=C(Nc1cccc(Cl)c1)ONC1=Nc2ccc([N+](=O)[O-])cc2C(c2ccccc2Cl)=NC1 | 130 to 135 |
| Cc1ccc(NC(Nc2ccc(C)cc2)Nc2ccc(C)cc2)cc1 | 130 to 131 |
| O=C(CN1C(=O)C(c2ccccc2)c2ccccc21)N1CCOCC1 (centres undefined) | 153 to 154 |
| COc1ccc2nc(C)[nH]c(=O)c2c1Br | 273 to 274 |
| CCCOc1ccc(-c2ncc(C#N)c(Cl)n2)cc1 | 193 to 194 |
| c1ccc(Nc2nc(OCC3CCCCC3)c3[nH]cnc3n2)cc1 | 196 to 199 |
| CC1(C)CCC(Cc2ccc(Cl)cc2)=C(O)C1=O | 80 to 82 |
| CC(C)(C)OC(=O)N1CCn2c(c(C(N)=O)c(C#N)c2C2CCN(C(=O)OCc3ccccc3)CC2)C1 | 90 |
| COc1ccc(S(=O)(=O)N(CC(=O)O)CC(=O)O)cc1 | 177 to 178 |
| CCOC(=O)C(O)(Cc1ccc2ccccc2n1)C(=O)OCC | 71 to 72 |
| CC(C)(C)c1cc(C(=O)c2cccs2)cc(CN2CCCCC2)c1O | 132 to 133 |
| O=C(NCc1csc(C(F)(F)F)n1)c1ccnc(N2CCN(Cc3ccc(F)cc3)C2=O)c1 | 66 to 68 |
| Cc1oc(-c2ccccc2)nc1CCOc1ccc(CCC#N)cn1 | 105 to 106 |
| CC(C)(C)c1ccc(OCC(=O)NCc2ccc(NS(C)(=O)=O)c(O)c2)cc1 | 112 |
| COc1ccc2c(c1)-c1ccccc1C=CC(O)=C2 | 97 to 99 |
| CCCCOCCc1ccc(C2=CCC(c3ccc(Br)cc3)CC2)cc1 (centres undefined) | 86.5 to 89.5 |
| Nc1ncnc2c1c(-c1cccc(Cl)c1)cn2-c1ccccc1 | 173 to 175 |
| CC(C)COC(c1cc(Cl)cc([N+](=O)[O-])c1O)c1cc(Cl)cc([N+](=O)[O-])c1O | 95 |

| SMILES | melting point [°C] |
| --- | --- |
| COc1ccc(COc2ccc3cc(C(C)C(=O)O)ccc3c2)cc1OC1CC2CCC1C2 (centres undefined) | 125 to 128 |
| O=C(OC1CCCCCCC1)c1ncn2c1[C@@H]1CCCN1C(=O)c1c(Cl)cccc1-2 | 183 to 184 |
| CC(C)(C)c1ccc(C(O)CCCN2CCC(=C3c4ccccc4C=Cc4ccccc43)CC2)cc1 (centres undefined) | 141 to 142 |
| Cc1ccc(S(=O)(=O)n2cc(F)c(=O)[nH]c2=O)cc1 | 241 to 242 |
| CC(=O)c1ccc(NS(=O)(=O)N(C)C)c(Oc2ccc(F)cc2F)c1 | 80 to 82 |
| CN(C)CCc1c[nH]c2ccc(C(N)=S)cc12 | 155 |
| CCOc1cc2c(cc1OCC)C(C(S)(C#N)c1ccccc1)=NCC2 (centres undefined) | 118 to 119 |
| NS(=O)(=O)Oc1ccc(C(F)(F)F)cc1 | 111 to 112 |
| O=C(c1ccccc1)C(O)c1ccc(F)cc1 (centres undefined) | 108 to 109 |
| Fc1ccc(N2CCN(Cc3ccc(CCl)cc3)CC2)cc1 | 81 to 83 |
| Brc1ccc(O[C@H]2CCNC[C@H]2c2ccccc2)cc1 (relative stereo) | 113 to 115 |
| CC(C)(C)C(=O)Nc1nc2[nH]c3cccc(Cl)c3c2c(=O)[nH]1 | 186 to 190 |
| O=C1C(=O)c2ccccc2C2=C1SCC1(CCN(CCc3ccccc3)CC1)O2 | 117 to 118 |
| N#Cc1nn(-c2c(Cl)cc(C(F)(F)F)cc2Cl)c(N)c1-c1cccc([N+](=O)[O-])c1 | 212 to 214 |
| CC(c1ccc2c(c1)Cc1ccccc1-2)n1ccnn1 (centres undefined) | 160 to 162 |
| COC(=O)c1ccc2c(c1)N(C(=O)c1ccc(C3CCCCC3)cc1)Cc1cccn1C2 | 174 to 176 |
| COc1cc(Nc2nccc(-c3sc(NCCc4ccccc4)nc3C)n2)cc(OC)c1OC | 184 to 186 |
| COc1ccc(-c2nc(CNC(=O)CC(=O)O)sc2-c2ccc(OC)cc2)cc1 | 126 to 130 |
| Cc1c(N)cc(C(C)(C)C)cc1N | 97.3 |
| N#Cc1cc(C2CCCO2)nn1-c1ccc(NC(=O)c2ccncc2F)cc1 (centres undefined) | 160 to 162 |
| COc1cc(OC)c2c(=O)[nH]c(-c3cc(C)c(OCCO)c(C)c3)cc2n1 | 225 |

| SMILES | melting point [°C] |
| --- | --- |
| Cc1oc(-c2ccccc2)nc1COc1cc(CO)ccn1 | 100 to 101 |
| COc1cc(OCCCCl)ccc1C(C)=O | 47 to 49 |
| COc1ccc(-n2c(=O)n(OCc3ccccc3)c(=O)c3cc(F)c(N4CCCC4)nc32)cc1 | 186 to 188 |
| Nc1cccc(C(F)(F)F)c1CCl | 155 to 161 |
| COc1cccc(C2C(=O)c3ccccc3C2=O)c1 | 142 to 144 |
| Cn1nc2ccccc2c1C(=O)NC1CCN(CCCc2ccc(F)cc2)CC1 | 162 to 165 |
| COc1ccc2c(c1)c1cc(-c3cc(F)cc(F)c3)c(=O)n(C)c1n2C | 189 |
| NC(=O)c1ccc2c(c1)C1(COc3cc4c(cc31)OCCO4)C(=O)N2Cc1ccccn1 (centres undefined) | 220 to 222 |
| CC(C)(C)c1cc(C(=O)CI)cc(C(C)(C)C)c1O | 88 to 89 |
| COc1ccc(C2(C#Cc3cccc(-c4noc(C(F)(F)F)n4)c3)CCCC(=O)C2)cc1OC1CCCC1 (centres undefined) | 99 to 100 |
| Nc1ccn([C@H]2C=C[C@@H](O)CC2)c(=O)n1 (racemic) | 224 to 226 |
| CN1C(=O)C2(COc3cc4c(cc32)OCCO4)c2c(OCc3ncccc3C(F)(F)F)cccc21 (centres undefined) | 157 to 159 |
| O=c1c2cc(F)c(N3CCCC3)nc2n(-c2ccccc2F)c(=O)n1O | > 250 |
| O=C1NCCN1c1nc(-c2ccc(Br)cc2)cs1 | 230 to 233 |
| c1ccc(COc2ccc3c(ccn3Cc3ccncc3)c2)cc1 | 124 to 125 |
| COC(=O)c1ccc(I)cc1Nc1ccccc1C(=O)O | 206 to 208 |
| CC(=O)c1cccc(NC(=O)NCC(=O)N(CC(=O)N2CCCc3ccccc32)c2ccccc2)c1 | 130 |
| Cc1coc2c1C(=O)CC(c1ccc(F)cc1)C2 (centres undefined) | 81 to 82 |
| Cc1ccc(C)c(OCCCC(C)(C)C(=O)Nc2cccc(-c3nnc(C)o3)c2)c1 | 90 to 92 |

Further lines, results first:

| melting point [°C] | SMILES |
| --- | --- |
| 206 | CC1(c2ccccc2)CCC(=O)C=C1C(=O)O (racemic) |
| 264 to 266 | Cc1cc(N2CC=C(C(N)=O)CC2)c2cccc(-c3ccc(Cl)cc3Cl)c2n1 |
| 280 | Nc1nc(-n2cc(C(=O)O)c(=O)c3cc(F)c(F)c(Cl)c32)c(F)cc1Cl |
| 180 | Cc1ccc(-c2cc(C(O)C#Cc3ccc(C(=O)O)cc3)cc3c2C(C)(C)CCC3(C)C)cc1 (centres undefined) |
| 124 to 125 | O=C1CCN(Cc2ccccc2)CC1C1c2ccccc2Oc2ccccc21 (centres undefined) |
| 53.8 to 54 | COC(=O)c1cc2ccccc2o1 |
| 123 to 126 | COC(=O)c1cc(C(C)Br)cnc1C1=NC(C)(C(C)C)C(=O)N1 (centres undefined) |
| 213 | COc1ccccc1C1(O)CCN(C2CCN(C(=O)c3cc(C)cc(C)c3)C(Cc3ccccc3)C2)CC1 (centres undefined) |
| 155 to 158 | COc1cc(-c2[nH]c3ccc(OCc4ccccc4)cc3c2C)ccc1OCc1ccccc1 |
| 128 | N#Cc1cc(N2CCN(CCCCCC(=O)N3Cc4ccccc4C3)CC2)cc(C(F)(F)F)c1 |
| 137 to 139 | C#CCCN1C(=O)c2ccccc2C1=O |
| 238 to 244 | CN1CCC(N(C)C(=O)c2ccc(Nc3nccc(Nc4ccc(C(F)(F)F)cc4)n3)cc2)CC1 |
| 94 to 95 | CC(C)(C)CN(CC(C)(C)C)C(=O)C(O)(C(=O)O)c1ccc(Cl)c(Cl)c1 (centres undefined) |
| 155 to 156 | Cn1cc2c(ncn3nc(-c4ccco4)nc23)n1 |
| 188 to 191 | COc1ccccc1N(CN1C(=O)CSC1=O)C(=O)CCl |
| 94 to 95 | C=CCCCCCCCCc1nc2c(s1)NCCCC2 |
| 153 to 155 | CN(C)CCNc1cc(Oc2ccc3c(C(=O)Nc4cc(C(C)(C)C)nn4-c4ccc(F)cc4)cccc3c2)ncn1 |
| 111 to 113 | N#Cc1ccc(F)cc1-c1ccc(F)cc1 |
| 116 to 118 | COc1cc2nc(C)nc(Cl)c2cc1OCCCN1CCOCC1 |

| melting point [°C] | SMILES |
| --- | --- |
| 180 to 182 | CCNc1ncc2cc(-c3c(Cl)cccc3Cl)c(=O)n(C)c2n1 |
| 177 to 178 | COc1ccc(C(=O)Nc2c(Cl)cncc2Cl)cc1OC1C=CCC1 (centres undefined) |
| 128 to 129 | CNc1ccc(C23CC2C(=O)N(C)C3=O)cc1 (centres undefined) |
| > 260 | NC1COC2=CC3=C(OCCC3)C(=O)C21 (centres undefined) |
| 215 to 218 | CCc1cccc(CC)c1NC(=O)NC1(c2ccccc2)CCCC1 |
| 191 to 193 | COc1ccc(-c2cc3cc(F)c(F)cc3[nH]2)cc1NC(=S)NCCO |
| 124 to 126 | CSC(=O)C(=O)c1ccc2oc(-c3ccccc3)cc2c1 |
| 132 to 136 | C[C@@H](n1cnc2cc(-c3ccc(Cl)cc3)sc2c1=O)[C@](O)(Cn1cncn1)c1ccc(Cl)cc1Cl |
| 147 to 148 | COc1nn(-c2ccc(C=O)cc2)nc1Cl |
| 170 to 172 | OCCc1nccn1Cc1coc(-c2ccc(OCc3coc(/C=C/c4ccc(Cl)cc4F)n3)cc2)n1 |
| 207 to 208 | Nc1ccc(-c2cc(=O)c(C(=O)O)cn2-c2cccnc2)cc1 |
| 256 to 257 | CCOC(=O)Nc1nc(-c2ccccc2)c(-c2nc3ccccc3c(=O)n2-c2ccc(OC)cc2)s1 |
| 137 to 138 | CC(C)(C)C(=O)Nc1ccncc1-c1noc2ccccc12 |
| 116 to 119 | CCOC(=O)COc1cccc(-c2cc(O)c(SCCc3ccccc3)c(=O)o2)c1 |
| 237 to 238 | CC(C)c1cccc(C(C)C)c1NC(=O)Cc1c(-c2ccccc2)c2cc(Cl)ccc2n(C)c1=O |
| 248 | CS(=O)(=O)c1ccc(-c2nn(Cc3cccnc3)c(=O)cc2-c2ccc(Cl)cc2)cc1 |
| 215 | COCC(C(=O)O)N(CCN(CC(=O)O)C(COC)C(=O)O)CC(=O)O (centres undefined) |
| 157 | COC(=O)C1(C(N)=O)CC1 |
| 219 to 220 | CC(C)(C)OC(=O)Nc1ccc2c3c(cc([N+](=O)[O-])c2c1)N(C(=O)C(F)(F)F)CC3CCl (centres undefined) |
